Results taken from ChEMBL document CHEMBL1145242, “EB1627: a soluble prodrug of the potent anticancer cyanoguanidine CHS828” (Bioorg Med Chem Lett, 2005).
Converted amounts (≈) assume the structure as drawn.

Assays:
[1] = Inhibition of NYH Cell line; type: functional, cell-based; conditions: Homo sapiens
[2] = Half life value at pH-7.4; type: ADME
[3] = Half life value in human serum; type: ADME, cell-free
[4] = Solubility at pH-5.5; type: physicochemical
[5] = Solubility at pH-7.4; type: physicochemical

IC50 [1] [nM] | half-life [2] [min] | half-life [3] [min] | solubility [4] [µg/mL] | solubility [5] [µg/mL] | Compound
0.631 | > 240 | 27 | 34 | 14 | COCCOCCOC(=O)OC[n+]1ccc(N/C(=N/CCCCCCOc2ccc(Cl)cc2)NC#N)cc1.[Cl-]
0.501 | > 240 | 30 | 1200 | 83 | COCCOCCOCCOC(=O)OC[n+]1ccc(N/C(=N/CCCCCCOc2ccc(Cl)cc2)NC#N)cc1.[Cl-]
15.8 | > 240 | > 240 | > 1200 | 250 | Cl.N#CN/C(=N\CCCCCCOc1ccc(Cl)cc1)Nc1cc[n+](COC(=O)NCCCN)cc1.[Cl-]
0.794 | > 240 | 25 | > 1200 | 120 | COCCOCCOCCOCCOC(=O)OC[n+]1ccc(N/C(=N/C#N)NCCCCCCOc2ccc(Cl)cc2)cc1.[Cl-] [TEGLARINAD CHLORIDE]

Second part, the molecule before the results:

Compound | IC50 [1] [nM] | half-life [2] [min] | half-life [3] [min] | solubility [4] [µg/mL] | solubility [5] [µg/mL]
CC(C)[C@@H](N)C(=O)OC[n+]1ccc(N/C(=N/CCCCCCOc2ccc(Cl)cc2)NC#N)cc1 | 5.01 | – | – | – | –
Cl.N#CN/C(=N\CCCCCCOc1ccc(Cl)cc1)Nc1cc[n+](COC(=O)OCCCCCCCCCN)cc1.[Cl-] | 0.398 | > 240 | 15 | > 1200 | 38
N#CN=C(NCCCCCCOc1ccc(Cl)cc1)Nc1ccncc1 [CHS-828] | 0.501 | – | – | 2 (≈ 5.38 µM) | 0.5 (≈ 1.34 µM)
